Reference: US20220162188A1, “ISOPRENOIDS AND METHODS OF MAKING THEREOF” (NORTH CAROLINA STATE UNIVERSITY, priority 2019, published 2022)
Entries after “also recorded” stand apart in the source; their conditions may differ.

Key:
[1] = target: T1, isopentenyl phosphate kinase (IPK) (Thermoplasma acidophilum, UniProt Q9HLX1); assay type: biochemical; conditions: overnight reaction
T1 sequence (Q9HLX1 1-245): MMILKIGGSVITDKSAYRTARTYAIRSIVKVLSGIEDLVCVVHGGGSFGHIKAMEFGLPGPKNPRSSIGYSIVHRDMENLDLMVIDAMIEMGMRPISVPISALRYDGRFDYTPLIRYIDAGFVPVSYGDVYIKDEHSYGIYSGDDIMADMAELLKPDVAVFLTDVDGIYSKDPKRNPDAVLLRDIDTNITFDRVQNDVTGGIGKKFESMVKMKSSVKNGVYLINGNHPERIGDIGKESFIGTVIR
Protocol: Since the substrate scope of IPK has yet to be fully described, here IPK was tested against a wider panel of substrates. The IPK gene from T. acidophilum was codon optimized and subcloned into pET28a. Following expression in E. coli BL21 DE3, the enzyme was purified via metal-chelation affinity chromatography. Next, the substrate specificity of the enzyme was determined in vitro using a panel of synthesized alcohol monophosphates using low resolution mass spectrometry (FIG. 25). The availability of alcohol diphosphate byproducts (FIG. 23) conveniently served as product standards.
Assay for Initial Activity of Monophosphates with IPK. Fractions from the synthesis of the diphosphates on a 400 μmol scale containing the monophosphates were concentrated in vacuo and resuspended to 5 mg/mL in water. Enzymatic reaction mixtures contained 50 mM Tris (pH 8.0), 2.5 mM MgCl2, 0.05 mM DTT, 1 mM ATP, and 4.2 μg of enzyme in a 200 μL reaction with 40 μL of substrate (1 mg/mL final). A reaction mixture without enzyme was setup as a control. Reactions were incubated overnight at 37° C. and checked by low-resolution LC-MS for diphosphate product formation. Standards from the isolated diphosphates were used to confirm retention time and mass. Reactions with a >10% diphosphate generation as compared to the no enzyme control were selected for kinetic experiments. LC-MS experiments were conducted using a Shimadzu LC-MS 2020 single quadrupole instrument with a Phenomenex Kinetex UPLC C18 column (2.1×50 mm, […], 100 Å pores) column. 5 μL was injected onto and separated using a series of linear gradients developed from 0.1% formic acid in H2O (A) to 0.1% formic acid in acetonitrile (B) at 0.2 mL/min using the following protocol: 0-2.2 min, 95-1% A; 2.21-2.6 min, 1% A; 2.61-2.62 min, 1-95% A; 2.63-3.5 min, 95% A. Products of enzymatic reactions were verified by mass and comparison with diphosphate standards previously synthesized.

[2] = tested on: lycopene production via the DXP pathway; assay: Lycopene colorimetric reporter assay; assay type: cell-based; conditions: Fs 0.5 μM; E. coli BL21Tuner(DE3) lycopene reporter strain expressing IPK
[3] = target: T1, isopentenyl phosphate kinase (IPK); assay: NADH-coupled kinetic assay of IPK; conditions: for kcat fold higher than that with IP: relative to natural substrate IP
Protocol: (§1) The data was fitted to the Michaelis-Menten equation using SigmaPlot, and the kinetic parameters (kcat, Km, kcat/Km) extracted.
(§2) NADH-Coupled Kinetic Assays. NADH coupled assays were performed with purified enzymes. Reaction progress was monitored by absorbance at 340 nm at 30° C. in a 96-well plate using a Biotek Synergy 4 plate reader (Winooski, Vt.). 200 μL enzymatic mixtures contained 50 mM Tris (pH 8.0), 25 mM KCl, 2.5 mM MgCl2, 0.05 mM DTT, 1 mM ATP, 320 μM NADH, 400 μM phosphoenolpyruvate, 0.5 U pyruvate kinase, 0.7 U lactate dehydrogenase, and various amounts of substrate. Conditions were verified by doubling enzyme and verifying the initial rate was doubled as well.
(§3) Kinetics of IPK were done with purified enzyme using 0.09 μg of enzyme per well. Serial dilution was used to generate specific concentrations of substrates (3125, 1562, 781, 625, 391, 195, 98, 24, 12, and 3 μM). Each condition was performed in triplicate. Nonlinear regression was fitted using SigmaPlot (Systat Software Inc., San Jose, Calif., USA).

[4] = target: CpaD I329G (Aspergillus oryzae, UniProt F5HN73, I329G); assay: Substrate specificity of prenyltransferase mutant CpaD I329G in vitro; assay type: biochemical; conditions: pyrophosphate 2 mM, cyclic dipeptide 1 mM, enzyme 1 mg/mL
CpaD I329G, sequence (F5HN73 whole entry I329G): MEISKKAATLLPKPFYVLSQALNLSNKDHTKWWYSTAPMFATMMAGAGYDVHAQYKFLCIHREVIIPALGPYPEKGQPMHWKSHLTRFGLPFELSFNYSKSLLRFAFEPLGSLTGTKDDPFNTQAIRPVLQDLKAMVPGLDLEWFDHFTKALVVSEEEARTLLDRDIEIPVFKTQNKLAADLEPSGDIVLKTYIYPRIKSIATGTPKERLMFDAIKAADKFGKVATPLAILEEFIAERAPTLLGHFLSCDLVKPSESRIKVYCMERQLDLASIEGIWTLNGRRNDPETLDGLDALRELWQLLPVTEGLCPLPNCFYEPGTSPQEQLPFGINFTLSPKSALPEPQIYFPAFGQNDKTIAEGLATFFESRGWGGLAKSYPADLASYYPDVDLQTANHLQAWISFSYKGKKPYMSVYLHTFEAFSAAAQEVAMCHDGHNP
Source text: Altered substrate specificity of the prenyltransferase mutant CpaD 1329G in vitro. […] The results are illustrated in FIG. 62 and FIG. 63.

[5] = target: FtmPT1 M364G (Aspergillus fumigatus, UniProt Q4WAW7, M364G); conditions: pyrophosphate 2 mM, cyclic dipeptide 1 mM
FtmPT1 M364G, sequence (Q4WAW7 whole entry M364G): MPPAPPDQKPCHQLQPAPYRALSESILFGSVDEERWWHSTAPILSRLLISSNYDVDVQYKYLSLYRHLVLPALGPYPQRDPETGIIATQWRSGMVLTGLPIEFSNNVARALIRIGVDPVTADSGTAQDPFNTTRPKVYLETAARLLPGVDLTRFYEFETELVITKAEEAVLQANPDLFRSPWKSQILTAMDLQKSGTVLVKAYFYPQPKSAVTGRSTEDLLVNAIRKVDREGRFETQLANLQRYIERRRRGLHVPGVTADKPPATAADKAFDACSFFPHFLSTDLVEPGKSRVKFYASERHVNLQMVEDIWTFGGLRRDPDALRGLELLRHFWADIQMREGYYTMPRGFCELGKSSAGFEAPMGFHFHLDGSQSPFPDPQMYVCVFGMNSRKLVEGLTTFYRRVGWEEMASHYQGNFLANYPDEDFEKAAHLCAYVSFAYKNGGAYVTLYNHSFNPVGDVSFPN
Protocol: Each chemically synthesized pyrophosphate (2 mM) and cyclic dipeptide (1 mM) were tested for activity with purified FtmPT1 (100 mg/mL). […] The substrate (cyclic dipeptide) and product peak areas were determined by HPLC at a detection wavelength of 254 nm, and the conversion was calculated.

[6] = target: FgaPT2 M328G (Aspergillus fumigatus, UniProt Q50EL0, M328G); assay: Substrate specificity of FgaPT2 mutant M328G in vitro; assay type: biochemical; conditions: pyrophosphate 3 mM, enzyme 350 μg/mL, Trp 1 mM
FgaPT2 M328G, sequence (Q50EL0 whole entry M328G): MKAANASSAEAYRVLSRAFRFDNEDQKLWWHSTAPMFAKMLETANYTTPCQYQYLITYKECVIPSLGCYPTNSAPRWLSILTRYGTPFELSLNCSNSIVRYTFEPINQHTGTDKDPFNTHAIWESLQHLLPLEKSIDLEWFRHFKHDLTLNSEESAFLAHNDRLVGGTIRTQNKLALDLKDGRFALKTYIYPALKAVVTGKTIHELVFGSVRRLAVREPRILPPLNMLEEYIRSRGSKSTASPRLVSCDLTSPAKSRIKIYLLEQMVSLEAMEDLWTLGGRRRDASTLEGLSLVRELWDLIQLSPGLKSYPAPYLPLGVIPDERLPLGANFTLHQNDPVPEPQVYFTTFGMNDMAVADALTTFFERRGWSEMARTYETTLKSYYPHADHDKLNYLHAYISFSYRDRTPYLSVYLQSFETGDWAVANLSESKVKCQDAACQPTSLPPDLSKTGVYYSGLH
Protocol: Altered substrate specificity of the prenyltransferase FgaPT2 mutant M328G in vitro. Each chemically synthesized pyrophosphate (3 mM) was tested for activity with purified FgaPT2 M328 (350 μg/mL) and Trp (1 mM). […] The results are illustrated in FIG. 58 and FIG. 59.

[7] = tested on: PhoN; assay: Substrate specificity of wild-type PhoN, HR-LCMS; assay type: biochemical, Shigella flexneri; conditions: alcohol 100 mM, PhoN 20 μg/mL, ATP 50 mM
Protocol: Broad substrate specificity of wild-type PhoN. Each commercially available alcohol (100 mM) was tested for activity with purified PhoN (20 μg/mL) and ATP (50 mM). The product mixtures were analyzed by high resolution liquid chromatography mass spectrometry (HR-LCMS) to quantify the conversion of alcohol to mono-phosphate. Quantification was achieved by the addition of an internal standard (either geranyl phosphate or cinnamyl monophosphate) at known fixed concentration. The results are illustrated in FIG. 54 and FIG. 55.

[8] = target: FtmPT1 (Aspergillus fumigatus, UniProt Q4WAW7); assay type: biochemical; conditions: pyrophosphate 2 mM, cyclic dipeptide 1 mM
FtmPT1, sequence (Q4WAW7 whole entry): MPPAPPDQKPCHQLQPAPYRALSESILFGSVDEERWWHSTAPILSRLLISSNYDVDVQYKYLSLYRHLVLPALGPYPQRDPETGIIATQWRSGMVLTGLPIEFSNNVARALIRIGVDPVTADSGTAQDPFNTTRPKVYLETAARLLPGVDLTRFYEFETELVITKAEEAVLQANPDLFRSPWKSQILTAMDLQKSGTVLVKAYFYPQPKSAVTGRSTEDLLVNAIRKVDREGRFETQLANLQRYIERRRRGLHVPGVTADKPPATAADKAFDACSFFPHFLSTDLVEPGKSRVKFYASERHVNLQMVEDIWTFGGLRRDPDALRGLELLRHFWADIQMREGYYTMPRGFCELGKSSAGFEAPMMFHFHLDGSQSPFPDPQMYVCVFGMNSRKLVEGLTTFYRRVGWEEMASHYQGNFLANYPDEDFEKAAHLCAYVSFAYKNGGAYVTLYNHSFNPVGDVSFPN

[9] = target: CpaD (Aspergillus oryzae, UniProt F5HN73); assay: Substrate specificity of prenyltransferase CpaD in vitro; assay type: biochemical; conditions: pyrophosphate 0.3 mM, cyclic dipeptide 0.25 mM, CpaD 1 mg/mL
CpaD, sequence (F5HN73 whole entry, species assumed): as the sequence (F5HN73 whole entry I329G) above, with G329I counted along it
Protocol: Broad substrate specificity of the prenyltransferase CpaD in vitro. Each chemically synthesized pyrophosphate (0.3 mM) and cyclic dipeptide (0.25 mM) were tested for activity with purified CpaD (1 mg/mL). […] The results are illustrated in FIG. 60 and FIG. 61.

[10] = target: FgaPT2 (Aspergillus fumigatus, UniProt Q50EL0); assay: Substrate specificity of wild-type prenyltransferase FgaPT2 in vitro; assay type: biochemical; conditions: pyrophosphate 3 mM, FgaPT2 200 μg/mL, Trp 1 mM
FgaPT2, sequence (Q50EL0 whole entry): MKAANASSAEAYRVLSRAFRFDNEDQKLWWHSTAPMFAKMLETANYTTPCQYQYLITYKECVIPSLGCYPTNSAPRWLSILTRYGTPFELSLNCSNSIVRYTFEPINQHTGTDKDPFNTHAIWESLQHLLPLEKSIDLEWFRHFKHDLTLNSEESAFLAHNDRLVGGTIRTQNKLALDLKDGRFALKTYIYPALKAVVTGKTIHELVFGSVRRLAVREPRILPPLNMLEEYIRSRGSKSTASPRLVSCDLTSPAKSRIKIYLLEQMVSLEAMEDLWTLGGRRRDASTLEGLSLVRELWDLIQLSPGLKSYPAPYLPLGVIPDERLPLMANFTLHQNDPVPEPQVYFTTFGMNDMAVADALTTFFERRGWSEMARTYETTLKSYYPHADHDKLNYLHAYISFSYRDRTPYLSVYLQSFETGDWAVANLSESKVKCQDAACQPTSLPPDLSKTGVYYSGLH
Protocol: Broad substrate specificity of the wild-type prenyltransferase FgaPT2 in vitro. Each chemically synthesized pyrophosphate (3 mM) was tested for activity with purified FgaPT2 (200 μg/mL) and Trp (1 mM). The product mixtures were analyzed by HR-LCMS to identify the mass ions consistent with the expected alkylated product. The substrate (Trp) and product peak areas were determined by high performance liquid chromatography (HPLC) at a detection wavelength of 269 nm, and the conversion was calculated. The results are illustrated in FIG. 56 and FIG. 57.

[11] = target: IspA, a farnesyl diphosphate synthase (FPPase) (Escherichia coli, UniProt P22939); conditions: wild-type IspA, DMAPP as starter unit
IspA, a farnesyl diphosphate synthase (FPPase), sequence (P22939 whole entry): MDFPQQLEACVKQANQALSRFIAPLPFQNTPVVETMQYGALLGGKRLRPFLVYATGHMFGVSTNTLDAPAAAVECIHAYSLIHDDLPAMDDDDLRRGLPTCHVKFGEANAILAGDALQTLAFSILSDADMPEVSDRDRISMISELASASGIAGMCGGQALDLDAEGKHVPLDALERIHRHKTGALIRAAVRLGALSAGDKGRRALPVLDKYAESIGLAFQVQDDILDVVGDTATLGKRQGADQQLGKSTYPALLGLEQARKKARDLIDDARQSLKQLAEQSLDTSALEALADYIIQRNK

[12] = substrate: CC(C)=CCOP(=O)(O)O; assay: purified protein, by the assay type; conditions: other: IPK with monophosphorylated substrate, ± SD of the mean, 1 mM ATP, 30° C., pH 8.0
Protocol: as §1, §2, §3

[13] = substrate: C=C(C)CCOP(=O)(O)O; assay: purified protein, by the assay type; conditions: other: IPK with monophosphorylated substrate, ± SD of the mean, 1 mM ATP, 30° C., pH 8.0
Protocol: as §1, §2, §3

## CC(C)=CCC/C(C)=C\CC/C(C)=C\COP(=O)(O)O [FP, farnesyl monophosphate]
[1]
  phosphorylation by IPK to the corresponding pyrophosphate, as judged by MS: did not result in detection of the corresponding pyrophosphate

## O=CN(O)CCCP(=O)(O)O [Fs, fosmidomycin]
[2]
  lycopene production: almost completely inhibited lycopene production

## CC(C)=CCC/C(C)=C/COP(=O)(O)O [GP, geranyl monophosphate]
[1]
  phosphorylation by IPK to the corresponding pyrophosphate, as judged by MS: did not result in detection of the corresponding pyrophosphate

## CC(C)=CCC/C(C)=C\COP(=O)(O)O [NP, neryl monophosphate]
[1]
  phosphorylation by IPK to the corresponding pyrophosphate, as judged by MS: did not result in detection of the corresponding pyrophosphate

## C=CCCOP(=O)(O)O [Substrate 1]
[3]
  kcat fold higher than that with IP: 4.25 fold
[4]
  CpaD I329G-catalyzed alkylation of cyclic dipeptide: expected product detected: products detected by HPLC and confirmed by LR-LCMS
[5]
  FtmPT1 M364G-catalyzed alkylation of cyclic dipeptide: expected product detected: products detected by HPLC and confirmed by LR-LCMS
[6]
  FgaPT2 M328G-catalyzed alkylation of Trp: expected product detected: products detected by HPLC and confirmed by LR-LCMS
[7]
  PhoN-catalyzed phosphorylation of alcohol: expected product detected: mass ions were detected by HR-LCMS consistent with the expected product

## C=CCC(C)OP(=O)(O)O (stereo not shown) [Substrate 2]
[3]
  use as IPK substrate: detectable but kinetically irrelevant
[8]
  FtmPT1-catalyzed alkylation of cyclic dipeptide: expected product detected: products detected by HPLC and confirmed by LR-LCMS
[9]
  CpaD-catalyzed alkylation of cyclic dipeptide: expected product detected: products detected by HPLC and confirmed by LR-LCMS
[7]
  PhoN-catalyzed phosphorylation of alcohol: expected product detected: mass ions were detected by HR-LCMS consistent with the expected product

## C=C(Br)CCOP(=O)(O)O [Substrate 3]
[3]
  kcat fold higher than that with IP: 5.1 fold
[4]
  CpaD I329G-catalyzed alkylation of cyclic dipeptide: expected product detected: products detected by HPLC and confirmed by LR-LCMS
[5]
  FtmPT1 M364G-catalyzed alkylation of cyclic dipeptide: expected product detected: products detected by HPLC and confirmed by LR-LCMS
[6]
  FgaPT2 M328G-catalyzed alkylation of Trp: expected product detected: products detected by HPLC and confirmed by LR-LCMS
[7]
  PhoN-catalyzed phosphorylation of alcohol: expected product detected: mass ions were detected by HR-LCMS consistent with the expected product

## C#CCCCOP(=O)(O)O [Substrate 4]
[4]
  CpaD I329G-catalyzed alkylation of cyclic dipeptide: expected product detected: products detected by HPLC and confirmed by LR-LCMS
[5]
  FtmPT1 M364G-catalyzed alkylation of cyclic dipeptide: expected product detected: products detected by HPLC and confirmed by LR-LCMS
[6]
  FgaPT2 M328G-catalyzed alkylation of Trp: expected product detected: products detected by HPLC and confirmed by LR-LCMS
[7]
  PhoN-catalyzed phosphorylation of alcohol: expected product detected: mass ions were detected by HR-LCMS consistent with the expected product

## C=C(C)COP(=O)(O)O [Substrate 5]
[7]
  PhoN-catalyzed phosphorylation of alcohol: expected product detected: mass ions were detected by HR-LCMS consistent with the expected product

## C=CCCCOP(=O)(O)O [Substrate 6]
[3]; between 1 and 6
  fold drop in kcat/Km: 3 fold
[10]
  FgaPT2-catalyzed alkylation of Trp: expected product detected: mass ions were detected by HR-LCMS consistent with the expected product

## CCC/C=C\COP(=O)(O)O [Substrate 7]
[10]
  FgaPT2-catalyzed alkylation of Trp: expected product detected: mass ions were detected by HR-LCMS consistent with the expected product

## CCC/C=C/COP(=O)(O)O [Substrate 8]
[3]; π-bond geometry of 7 switched from Z to E in 8
  fold decrease in kcat/Km: 17 fold
[10]
  FgaPT2-catalyzed alkylation of Trp: expected product detected: mass ions were detected by HR-LCMS consistent with the expected product

## C#CCCOP(=O)(O)O [Substrate 9]
[7]
  PhoN-catalyzed phosphorylation of alcohol: expected product detected: mass ions were detected by HR-LCMS consistent with the expected product

## C=CCC(C)OP(=O)(O)OP(=O)(O)O (stereo not shown) [Substrate 19]
[8]
  FtmPT1-catalyzed alkylation of cyclic dipeptide: expected product detected: products detected by HPLC and confirmed by LR-LCMS
[9]
  CpaD-catalyzed alkylation of cyclic dipeptide: expected product detected: products detected by HPLC and confirmed by LR-LCMS
[10]
  FgaPT2-catalyzed alkylation of Trp: expected product detected: mass ions were detected by HR-LCMS consistent with the expected product
[7]
  PhoN-catalyzed phosphorylation of alcohol: expected product detected: mass ions were detected by HR-LCMS consistent with the expected product

## C=CCCCOP(=O)(O)O [Substrate 27]
[3]; IPK with monophosphorylated substrate, ± SD of the mean
  kcat: 93.1 ± 2.67 s⁻¹
[3]; IPK with monophosphorylated substrate, ± SD of the mean, 1 mM ATP, 30° C.
  Km: 848 ± 57.9 µM
[11]
  use as extender unit in place of IPP (GPP analogue by LC-MS), words: not utilized by IspA; also recorded: did not facilitate carbon-carbon bond formation; also recorded: did not serve as an extender unit

## O=P(O)(O)OP(=O)(O)OCc1cccnc1 [Substrate 32]
[11]
  use as extender unit in place of IPP (GPP analogue by LC-MS), words: did not serve as an extender unit

B1: isopentenyl phosphate kinase (IPK) (Thermoplasma acidophilum DSM 1728) (protein)
chain: MMILKIGGSVITDKSAYRTARTYAIRSIVKVLSGIEDLVCVVHGGGSFGHIKAMEFGLPGPKNPRSSIGYSIVHRDMENLDLMVIDAMIEMGMRPISVPISALRYDGRFDYTPLIRYIDAGFVPVSYGDVYIKDEHSYGIYSGDDIMADMAELLKPDVAVFLTDVDGIYSKDPKRNPDAVLLRDIDTNITFDRVQNDVTGGIGKKFESMVKMKSSVKNGVYLINGNHPERIGDIGKESFIGTVIR
[12]
  Km: 134 ± 38.2 µM
  kcat: 32.7 ± 2.05 s⁻¹
  kcat/Km: 230000 M⁻¹ s⁻¹
[13]
  Km: 27.9 ± 4.37 µM
  kcat: 43.9 ± 1.1 s⁻¹
  kcat/Km: 1.5e+06 M⁻¹ s⁻¹
